Test results published in patent publication US10004702B2, “Linear guanidine derivatives, methods of preparation and uses thereof” (LEAD DISCOVERY SIENA S.R.L., priority 2014, dated 2018).
≈ marks a conversion by molar mass, not a printed value.

What was measured:
[1] = test system: Achromobacter xylosoxidans AX 22; assay: Antimicrobial susceptibility testing, MIC by microdilution broth method; format: cell-based; settings: AX22, Mueller-Hinton broth, 18-24 hours at 35-37° C., read-out: MIC
Description: (§1) Bacterial strains were obtained from the ATCC or CCUG culture collections or present in the authors' collection of clinical isolates. Compounds were re-suspended in dimethyl sulfoxyde (DMSO) at a final concentration of 10 mg/ml and subsequently diluted in the culture medium. The minimum inhibitory concentrations (MICs) of the compounds of the invention were determined using the microdilution broth method using Mueller-Hinton broth as recommended by the Clinical Laboratory Standards Institute (CLSI [11]). Bacterial inoculum was 5×10^4 CFU/well. MICs were recorded after 18-24 hours incubation at 35-37° C.

[2] = test system: Bacillus subtilis ATCC 6633; assay: as above; format: cell-based; settings: ATCC6633, Mueller-Hinton broth, 18-24 hours at 35-37° C., read-out: MIC
Description: as §1

[3] = test system: Pseudomonas aeruginosa ATCC 27853; assay: as above; format: cell-based; settings: ATCC27853, Mueller-Hinton broth, 18-24 hours at 35-37° C., read-out: MIC
Description: as §1

[4] = test system: Staphylococcus aureus ATCC 25923; assay: as above; format: cell-based; settings: ATCC25923, Mueller-Hinton broth, 18-24 hours at 35-37° C., read-out: MIC
Description: as §1

[5] = test system: Alcaligenes faecalis 424/98; assay: Bactericidal activity (MBC); format: cell-based
[6] = test system: Pseudomonas aeruginosa ATCC 27853; assay: Bactericidal activity (MBC); format: cell-based; settings: ATCC27853
[7] = test system: Klebsiella pneumoniae 167R; assay: MIC against resistant clinical isolates; format: cell-based; settings: resistance profile PDR
Description: as §1
(§2) The Antibacterial activity of compound 28 was also tested on a panel of Gram-negative and Gram-positive clinical isolates, showing various antimicrobial susceptibility profiles (Table 4). The class of drugs for which the isolate was resistant to is indicated in column 2 (PEN, penicillins; ES-CEPH, expanded-spectrum cephalosporins; CARB, carbapenems; AZT; aztreonam; AG, aminoglycosides; FQ, fluoroquinolones; SXT, trimethoprim/sulfamethoxazole; FOS, fosfomycin; GLY, glycopeptides; LNZ, linezolid; COL-R, colistin resistant; COL-S colistin sensitive; PDR, poly-drug resistant).

[8] = test system: Klebsiella pneumoniae 207-1; assay: MIC against resistant clinical isolates; format: cell-based; settings: 2071, COL-S
Description: as §1, §2

[9] = test system: Klebsiella pneumoniae 207-2; assay: MIC against resistant clinical isolates; format: cell-based; settings: 2072, COL-R
Description: as §1, §2

[10] = test system: Klebsiella pneumoniae 7023; assay: MIC against resistant clinical isolates; format: cell-based; settings: resistance profile PEN, ES-CEPH, CARB, AG, FQ, SXT
Description: as §1, §2

Klebsiella pneumoniae B1 = assay: MIC against resistant clinical isolates; format: cell-based; settings: COL-S
Description: as §1, §2

Klebsiella pneumoniae B2 = assay: MIC against resistant clinical isolates; format: cell-based; settings: COL-R
Description: as §1, §2

[11] = test system: Klebsiella pneumoniae BO1; assay: MIC against resistant clinical isolates; format: cell-based; settings: COL-S
Description: as §1, §2

[12] = test system: Klebsiella pneumoniae BO4; assay: MIC against resistant clinical isolates; format: cell-based; settings: COL-R
Description: as §1, §2

[13] = test system: Klebsiella pneumoniae KP0787; assay: MIC against resistant clinical isolates; format: cell-based; settings: resistance profile PDR
Description: as §1, §2

[14] = test system: Pseudomonas aeruginosa 101/1477; assay: MIC against resistant clinical isolates; format: cell-based; settings: resistance profile PEN, ES-CEPH, CARB, AG
Description: as §1, §2

[15] = test system: Pseudomonas aeruginosa 14X-34; assay: MIC against resistant clinical isolates; format: cell-based; settings: 14X34, resistance profile PDR
Description: as §1, §2

[16] = test system: Pseudomonas aeruginosa VR143/97; assay: MIC against resistant clinical isolates; format: cell-based; settings: resistance profile PEN, ES-CEPH, CARB, MON, AG, FQ
Description: as §1, §2

[17] = test system: Staphylococcus aureus ATCC 43300 (MRSA); assay: MIC against resistant clinical isolates; format: cell-based; settings: resistance profile PEN
Description: as §1, §2

[18] = test system: Staphylococcus aureus ATCC 700699 (VanA); assay: MIC against resistant clinical isolates; format: cell-based; settings: ATCC700699, resistance profile GLY
Description: as §1, §2

[19] = test system: Staphylococcus haemolyticus SI-6/2011; assay: MIC against resistant clinical isolates; format: cell-based; settings: SI6/2011, resistance profile AG
Description: as §1, §2

[20] = test system: Staphylococcus warneri SI-5/2011; assay: MIC against resistant clinical isolates; format: cell-based; settings: SI5/2011, resistance profile PEN, AG
Description: as §1, §2

[21] = Parallel Artificial Membrane Permeability Assay (PAMPA); format: in vitro ADME; settings: pH 7.4, 5 h at room temperature, read-out: apparent permeability (Papp)
Description: Donor solution (0.5 mM) was prepared by diluting 1 mM dimethylsulfoxide (DMSO) compound stock solution using tris-HCl buffer (50 mM) at pH 7.4. Filters were coated with 5 μL of a 1% (w/v) dodecane solution of phosphatidylcholine. Donor solution (150 μL) was added to each well of the filter plate. To each well of the acceptor plate were added 300 μL of solution (50% DMSO in phosphate buffer). Compound 28 was tested in three different plates on different days. The sandwich was incubated for 5 h at room temperature under gentle shaking. After the incubation time, the plates were separated, and samples were taken from both receiver and donor sides and analyzed using LC with UV detection at 210 and 254 nm. LC analysis were performed with a Perkin-Elmer (series 200) instrument equipped with an UV detector (Perkin-Elmer […], UV/vis Detector). Chromatographic separation were conducted using a Polaris C18 column (150-4.6 mm, 5 μm particle size) at a flow rate of 0.8 mL min-1 with a mobile phase composed of 50% CH3CN/50% H2O-formic acid 0.1%. Permeability (Papp) was calculated according to equation 1, obtained from Sugano [12] and Wohnsland [13] equation with some modification to obtain values in cm/s. […]

Human Serum Albumin = Human Serum Albumin (Homo sapiens, UniProt P02768); assay: Binding fluorimetric assay (tryptophan quenching); settings: fixed concentration of HSA titrated with different amounts of compound
Sequence of Human Serum Albumin (P02768 25-609): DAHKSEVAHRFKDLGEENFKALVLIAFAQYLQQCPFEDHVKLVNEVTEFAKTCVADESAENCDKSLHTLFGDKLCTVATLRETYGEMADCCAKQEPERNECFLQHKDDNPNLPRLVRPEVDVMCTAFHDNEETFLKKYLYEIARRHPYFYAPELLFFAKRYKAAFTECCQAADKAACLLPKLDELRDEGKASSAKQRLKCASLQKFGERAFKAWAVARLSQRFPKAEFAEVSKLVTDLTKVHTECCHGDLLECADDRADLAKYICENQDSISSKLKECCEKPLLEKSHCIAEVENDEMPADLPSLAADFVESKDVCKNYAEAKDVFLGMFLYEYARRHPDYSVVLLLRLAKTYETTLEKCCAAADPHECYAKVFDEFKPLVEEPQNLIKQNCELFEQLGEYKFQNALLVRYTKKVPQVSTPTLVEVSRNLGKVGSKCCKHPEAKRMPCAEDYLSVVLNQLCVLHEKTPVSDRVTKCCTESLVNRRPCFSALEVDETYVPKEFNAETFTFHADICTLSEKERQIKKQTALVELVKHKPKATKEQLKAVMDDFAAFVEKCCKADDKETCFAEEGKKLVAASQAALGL
Description: The solutions were mixed and after allowing 30 minutes at room temperature to reach the equilibrium conditions, the spectra were recorded. […] The percentages obtained were plotted against the concentrations used and the KD values were calculated using GraphPad software (version 5.0).

## N=C(N)NCCCCCCCCN(CCCCCCCCNC(=N)NCC1CC1)C(=O)N(CCCCCCCCNC(=N)N)CCCCCCCCNC(=N)NCC1CC1 [Compound 28, 1,3-bis(8-(3-(cyclopropylmethyl)guanidino)octyl)-1,3-bis(8-guanidinooctyl)urea]
[1]
  MIC: 8 µg/mL (≈ 9.46 µM)
[2]
  MIC: 0.5 µg/mL (≈ 0.591 µM)
[3]
  MIC: 4 µg/mL (≈ 4.73 µM)
[4]
  MIC: 2 µg/mL (≈ 2.37 µM)
[5]
  MBC: 8 µg/mL (≈ 9.46 µM)
[6]
  MBC: 4 µg/mL (≈ 4.73 µM)
[7]
  MIC: 4 µg/mL (≈ 4.73 µM)
[8]
  MIC: 4 µg/mL (≈ 4.73 µM)
[9]
  MIC: 8 µg/mL (≈ 9.46 µM)
[10]
  MIC: 2 µg/mL (≈ 2.37 µM)
Klebsiella pneumoniae B1
  MIC: 4 µg/mL (≈ 4.73 µM)
Klebsiella pneumoniae B2
  MIC: 4 µg/mL (≈ 4.73 µM)
[11]
  MIC: 4 µg/mL (≈ 4.73 µM)
[12]
  MIC: 8 µg/mL (≈ 9.46 µM)
[13]
  MIC: 1 µg/mL (≈ 1.18 µM)
[14]
  MIC: 8 µg/mL (≈ 9.46 µM)
[15]
  MIC: 8 µg/mL (≈ 9.46 µM)
[16]
  MIC: 8 µg/mL (≈ 9.46 µM)
[17]
  MIC: 4 µg/mL (≈ 4.73 µM)
[18]
  MIC: 4 µg/mL (≈ 4.73 µM)
[19]
  MIC: 2 µg/mL (≈ 2.37 µM)
[20]
  MIC: 2 µg/mL (≈ 2.37 µM)
[21]
  Papp at 5 h, 0.5 mM: 1.6 ×10⁻⁶ cm/s
Human Serum Albumin
  intrinsic fluorescence decrease of HSA: scarce intrinsic fluorescence decrease
